Literature values, collected in patent US7205279B2, “Pharmaceutical compositions” (Novartis AG, priority 1995, dated 2007).

Conditions: room temperature

For `CCOC(C)=O` [Ethyl acetate], the solubility in water is given as 8.5 g per 100 ml.
